Columns and labels:
[1] = system: HEPG2 cells; assay: CellTiter-Glo cell viability assay (MIC2-based PAX); settings: EGFR-negative HEPG2, complexes at 50% loading
Protocol: 2000 cells per well were seeded into white-opaque 384-well plates followed by overnight incubation in a humid chamber at 37° C. and 5% CO2. Complexation was performed as described in chapter 7.4.
The solutions were added to the cells based on the antibody concentration using Tecan D300e dispenser and all wells were normalized to the same volume using 0.3% TW20 in PBS pH 7.4 and DMSO. The assay was developed after 3 days if not otherwise stated using CellTiter-Glo Luminescent Cell Viability Assay as described in the manufacturer's protocol. In brief, the plates were equilibrated to room temperature for 30 minutes. 100 mL CellTiter-Glo Buffer were added to the CellTiter-Glo Substrate Flask and mixed well. 30 μL of the reagent was transferred to each well. After incubation for 3 minutes at room temperature while shaking at 550 rpm, the plate was incubated for another 10 minutes at room temperature. The luminescence was read on an Envision reader. The evaluation was performed using GraphPad Prism 8 by normalization of cells treated with sample to untreated cells. The data were fitted with 4 point logistic curve to determine the IC50 value.

[2] = system: MV411 cells; assay: CellTiter-Glo cell viability assay (VHH-based PAX); design: species or system human; settings: MV411, PROTAC alone
Protocol: Several cell viability experiments were performed following the procedure described below: Cells were seeded in different media into white cell culture-treated flat and clear bottom multiwell plates followed by overnight incubation in a humid chamber at 37° C. and 5% CO2. Complexation was performed as described in chapter 7.4.
The solutions were added to the cells based on the antibody concentration using nanodrop dispension using a Tecan D300e Digital Dispenser and all wells were normalized to the same volume using 0.3% TW20 in PBS pH 7.4 and DMSO to a final solvent concentration of 0.05% DMSO and 0.003% TW20. Incubation was performed at 37° C. at 5% or 10% CO2 dependent on the medium. The assay was developed after 3 days if not otherwise stated using CellTiter-Glo Luminescent Cell Viability Assay as described in the manufacturer's protocol. In brief, the plates were equilibrated to room temperature for 30 minutes. 100 mL CellTiter-Glo Buffer were added to the CellTiter-Glo Substrate Flask and mixed well. 30 μL of the reagent was transferred to each well. After incubation for 3 minutes at room temperature while shaking at 550 rpm, the plate was incubated for another 10 minutes at room temperature. The luminescence was read on an Envision reader from Perkin Elmer. […]

[3] = target: T1, BRD4 (Homo sapiens, UniProt O60885); assay: BRD4 Western blot degradation assay in MV411 cells; type: cell-based; design: endogenous in cells; host or cells: MV411; settings: CD33-positive MV411 cells, 24 h, complexes (1:1)
Protocol: Therefore, CD33-positive MV411 cells were treated with CD33xMIC7+GNE987 or DIGxMIC7+GNE987, as non-binding PAX control, at different concentrations and GNE987 alone as control. MV411 cells were cultured in RPMI-1640 medium supplemented with 10% FCS and penicillin-streptomycin. MV411 cells were seeded in 12-well plates at 1 million cells/ml in 2 ml culture medium and cultured overnight in cell incubator at 37° C. and 5% CO2. Complexation was performed as described in chapter 7.4. GNE987 only was preincubated at identical conditions but in absence of antibody. Subsequently, cells were treated by nanodrop dispersion using a Tecan dispenser with either CD33xMIC7+GNE987 (1:1), DIGxMIC7+GNE987 (1:1) or GNE987 in the respective concentration. All conditions were normalized to 0.0005% (v/V) DMSO and 3.0E-5% Tween20. Cells were incubated for 24 h in cell incubator at 37° C. and 5% CO2. […] Protein concentration was determined via Mettler Toledo UV5Nano photometer. […]
After incubation with corresponding HRP-labeled anti-rabbit/mouse secondary antibodies (GE-Healthcare) at 1:10,000 dilution, blots were detected using ECL solution (Advansta) and x-ray films (GE-Healthcare). Results were analyzed with ImageJ software (version 1.53K, NIH). […]

[4] = target: T1, BRD4; assay: BRD4 degradation, immunofluorescence imaging in MDA-MB-468 cells; type: cell-based; design: endogenous in cells; host or cells: MDA-MB-468; settings: 4 nM, 43 h, relative to untreated cells
Protocol: BRD4 was chosen as the model protein for the disclosed invention due to the strong pharmacological effect (cell death) that is induced upon degradation of BRD4. For the evaluation of targeted BRD4 degradation, MDA-MB-468 cells were seeded into a black 96 well clear bottom plates (10,000 cells/well) followed by incubation (37° C., 5% CO2) in a humid chamber overnight. Test compounds were added using a D300e digital dispenser (Tecan) and incubated for 43 h (37° C., 5% CO2, humid chamber). Cells were washed 3× with PBS, fixed in 2% (v/V) formaldehyde for 15 min at rt and washed again (3×). To permeabilize cells, 0.2% (v/V) Triton-X-100 was added for 10 min at rt and removed by washing with PBS (3×). Wells were blocked with 3% (w/v) BSA in PBS for 60 min at rt, washed trice, and cells were incubated with 2.3 μg/mL rabbit anti-BRD4 antibody (Abcam) diluted in 3% BSA/PBS for […] at 4° C. overnight. […] After a final washing step, cells were preserved in 0.1% (w/V) sodium azide and transferred to a Cytation 5 cell imaging reader (Biotek). […] For quantitative analysis of nuclear BRD4 levels, only the green fluorescence (AF488) co-localized with DAPI staining was counted. Green fluorescence was normalized to cell number and expressed relative to untreated cells.

Cc1ncsc1-c1ccc(CNC(=O)[C@@H]2C[C@@H](O)CN2C(=O)[C@@H](NC(=O)CCCCCCCCCCNC(=O)c2cc3c(cc2CS(C)(=O)=O)-c2cn(C)c(=O)c4[nH]cc(c24)CN3c2ncc(F)cc2F)C(C)(C)C)cc1 [GNE987]
IC50 [1]: 3.1 nM
IC50 [2]: < 0.045 nM
BRD4 degradation (Western blot) [3]: BRD4 degradation was found
remaining BRD4 [4]: 39.0%

Reference: patent US20250312468A1, “ANTI-PROTAC ANTIBODIES AND COMPLEXES” (Merck Patent GmbH, priority 2021, published 2025)
